Assay [1] relates to human bladder tumor xenografts. Kind of assay: Human bladder tumor xenografts in nude mice. The class given is in vivo.
The subject of a further assay is pancreatic tumors. The assay is classed as in vivo, mice. To be noted: n = 8 each. From the text: This is highly relevant for improving the likelihood of an antitumor response to checkpoint blockade.
See, FIG. 4, panels labeled “Time-to-tumor progression.”

In assay [2] the test system is human renal cell carcinoma xenografts (786-0). To be noted: Hubbell, 1990, cited from earlier work.
Assay [3] has the same test system. Kind of assay: Human renal cell carcinoma (786-0) xenografts in nude mice. The class given is in vivo. The following applies: monotherapy. In general terms: In xenograft studies the graft and the host belong to different species.
The next assay relates to B16-F10 melanoma tumors. To be noted: Day 30, n = 10; for Number of Complete Responses (CR): RECIST v1.1.
Assay [4] deals with pancreatic carcinoma. Kind of assay: Second line therapy following progression on FOLFIRINOX (literature studies). The following applies: Overall (mean). The class given is in vivo, human. From the text:
Overall Survival (OS) increased from 6.8 months with Gemcitabine to 11.1 months with FOLFIRINOX (p<0.001). However, the Complete Response Rate (CR) was only 0.6%.

Assay [5] concerns pancreatic carcinoma. To be noted: second line, cited from earlier work.
Assay [6] has as its system locally advanced and metastatic pancreatic carcinoma. The following applies: first line therapy; n = 171 per arm; cited from earlier work.

Like-named read-outs stand apart in the source and are kept apart here. Marks after values point to notes of the source that are not given here.

Protocol for B16-F10 melanoma tumors: Rintatolimod together with anti-PD-L1 antibodies were tested for anti-tumor activity against established subcutaneous B16 melanoma tumors in C57BL/6 mice. Mice (10 animals per group) were inoculated with 0.4×10E6 B16-F10 tumor cells in their shaved rear flanks. Seven days later (when tumors reached 0.3 to 0.5 cm in their largest diameter), mice were randomized for tumor sizes, and individually tagged and were allocated to the following six treatment groups: • No treatment (negative controls) • Rintatolimod alone 100 μg/dose 4× • Rintatolimod alone 250 μg/dose 4× • Anti-PD-L1 mAb alone • Rintatolimod 100 μg/dose 4× plus anti-PD-L1 mAb • Rintatolimod 250 μg/dose 4× plus anti-PD-L1 mAb
Rintatolimod was injected intravenously at 100 or 250 micrograms/dose and was repeated 4 times, 5 days apart. Anti-PD-L1 mAb (clone 10F.9G2, BioXCell) was administered intraperitoneally on Days 1 and 3 after each rintatolimod injection at a 200 microgram/dose. Tumors were measured 3 times per week using a set of calipers, taking measurement of 2 opposing diameters and were recorded as tumor areas.
Results were presented as tumor sizes for individual mice throughout time of therapy, average tumor size in each group and survival up to Day 30 (time to euthanasia).
[sequence] and anti-PD-L1 antibodies were tested for anti-tumor activity against established subcutaneous B16 melanoma tumors in C57BL/6 mice. Briefly, mice (10 animals per group) were inoculated with 0.4×10E6 (i.e., 400,000) B16-F10 tumor cells in their shaved rear flanks. Seven days later, mice were randomized to six treatment groups as follows: (Group 1) No treatment (negative controls); (Group 2) [sequence] alone 100 μg/dose 4λ; (Group 3) [sequence] alone 250 μg/dose 4λ; (Group 4) Anti-PD-L1 mAb alone; (Group 5) [sequence] 100 μg/dose 4× plus anti-PD-L1 mAb; (Group 6) [sequence] 250 μg/dose 4× plus anti-PD-L1 mAb. mAb refers to monoclonal antibody.
[sequence] was injected IV at 100 or 250 μg/dose 4 times, 5 days apart. Anti-PD-L1 mAb was administered IP on Days 1 and 3 after each [sequence] dose at 200 μg/dose. Tumors were measured 3 times per week using calipers, measuring 2 opposing diameters. […] Results were presented as tumor sizes for individual mice throughout time of therapy up to Day 30.

Turning to “polyriboinosinic: polyribocytidylic(12:1)uridylic acid”, the “growth of human bladder tumor xenografts” value in assay [1] was “significantly inhibited”. In addition, the “Increased Survival Over Control” value in the assay on pancreatic tumors (difference to control (33)) is 0 days. Besides, in the assay on pancreatic tumors (initial results), the “Time to Progression Median-Days” value came to 33 days. Moreover, in assay [2] (p<0.001), the tumor growth inhibition result was “statistically significant”. The survival entry in assay [2] (p<0.002) was “statistically significant”. The tumor regression entry in assay [3] is listed as “tumor regression was observed in each mouse”. Further, in assay [3] (while 100% of the control group had died), the “mice free of residual tumor” value amounted to 90%. In the assay with B16-F10 melanoma tumors (rintatolimod 100 μg/dose 4× IV), the “Number of Partial Responses (PR)” value is recorded as 0, the “Total # Tumor Responses CR + PR” value came to 0 and the “Number of Complete Responses (CR)” value stood at 0. Also, in the assay with B16-F10 melanoma tumors (rintatolimod 250 μg/dose 4× IV), the “Number of Partial Responses (PR)” value came out at 0, the “Total # Tumor Responses CR + PR” value came to 0 and the “Number of Complete Responses (CR)” value came out at 0.

Turning to `Nc1ccn([C@@H]2O[C@H](CO)[C@@H](O)C2(F)F)c(=O)n1` [Gemcitabine], the “Partial Response Rates (PR) (%)” value is 6.4%* in the assay on pancreatic carcinoma [4] (weighted average) and “(9.4) %” in assay [6]. The “Progression Free Survival (PFS) (months)” value in the assay with pancreatic carcinoma [4] (weighted average) is 2.24* months; in the assay on pancreatic carcinoma [5] (Gilabert, et al. 2017, 72 patients), 2.5 months; with pancreatic carcinoma [5] (Viaud, et al 2017), 2.1 months; with pancreatic carcinoma [5] (da Rocha, et al. 2015), 2.0 months; in assay [6], 3.3 months. Moreover, the “Overall Survival (OS) (months)” value is recorded as 4.05* months with pancreatic carcinoma [4] (weighted average based on n in each study); 3.7 months in the assay with pancreatic carcinoma [5] (Viaud, et al 2017, 96 patients); 5.7 months with pancreatic carcinoma [5] (da Rocha, et al. 2015, 20 patients); 6.8 months in assay [6]. Further, the “Complete Response Rates (CR) (%)” value in assay [6] was “(0) %”. The “Complete Response Rates (CR) n” value in assay [6] is recorded as 0 n. In addition, the “Partial Response Rates (PR) n” value in assay [6] is 16 n.

(Values after patent publication US11813279B2, “Compositions for cancer therapy and methods” (AIM IMMUNOTECH INC., priority 2018, dated 2023).)
